Source: patent US12251407B2, “Use of Megamonas funiformis in preventing and/or treating metabolic diseases” (BGI SHENZHEN, priority 2018, dated 2025)
Marks after values point to notes of the source that are not given here.

What was measured:
AF24-28AC = experiment: Antibiotic sensitivity of AF24-28AC, drug sensitive paper method; format: cell-based, Megamonas funiformis; settings: for Diameter of inhibition zone: antibiotic susceptibility papers on AF24-28AC plates, 37° C., 48 hours; for Sensitivity of AF24-28AC to the antibiotic (resistant / sensitive): drug sensitive paper method
Experimental: The sensitivity of AF24-28AC to 20 common antibiotics was tested by the drug sensitive paper method. 100 μl of AF24-28AC bacterial solution cultured to the logarithmic phase was spread plated. Antibiotic susceptibility papers (purchased from Hangzhou Microbial Reagent Co. LTD) were affixed on the medium surface of plates, cultured at 37° C. for 48 hours, after which the size of inhibition zone was measured.

T2D mice model [1] = experiment: T2D animal model (STZ plus high-fat feed), body weight; format: in vivo, C57bL/6 mice; settings: gavage
Experimental: (§1) The T2D animal model is constructed by using C57bL/6 mice (purchased from Guangdong Medical Experimental Animal Center) at 8 weeks old and 20±2 g of body weight. The mice are housed in a specific pathogen free (SPF) environment and adaptively fed for 1 week, followed by grouping and modeling. The T2D animal model is induced by injection of streptozotocin (STZ) along with feeding high-fat feed, and the mice having a fasting blood glucose (FBG) reaching 10 mM/L can be used as a T2D mice model. Fifty mice selected for experiments are randomly divided into 5 groups. • Model group: the T2D mice model was administered with saline solution by gavage; • Bacterial agent group 1: the T2D mice model was administered with the DSM 19343 bacterial solution (1×10^8 cfu/m1) by gavage; • Bacterial agent group 2: the T2D mice model was administered with the AF24-28AC bacterial solution (1×10^8 cfu/m1) by gavage; • Bacterial agent group 3: the T2D mice model was administered with the JCM 14723 bacterial solution (1×10^8 cfu/m1) by gavage; • Metformin treatment group: the T2D mice model was treated with the positive drug metformin.
(§2) The experiment was carried out based on the different groups. After the construction of T2D mice model (i.e., FBG>10), the treatment was started and lasted for 2 months. The food intake amount and body weight of mice were recorded daily. Blood of mice was collected from the tail vein every week for detection of fasting blood glucose. The oral glucose tolerance test (OGTT) of mice was measured at week 4 of treatment and at the end of the experiment.

T2D mice model [2] = experiment: T2D animal model, fasting blood glucose; format: in vivo, C57bL/6 mice; settings: tail vein blood
Experimental: as §1, §2

T2D mice model [3] = experiment: T2D animal model, oral glucose tolerance test (OGTT); format: in vivo, C57bL/6 mice
Experimental: as §1, §2

Row | Compound | Diameter of inhibition zone (AF24-28AC) | also measured
1 | NCC[C@H](O)C(=O)N[C@@H]1C[C@H](N)[C@@H](O[C@H]2O[C@H](CN)[C@@H](O)[C@H](O)[C@H]2O)[C@H](O)[C@H]1O[C@H]1O[C@H](CO)[C@@H](O)[C@H](N)[C@H]1O [Amikacin] | 2.6 cm | 
2 | CC1(C)S[C@@H]2[C@H](NC(=O)[C@H](N)c3ccccc3)C(=O)N2[C@H]1C(=O)O [Ampicillin] | 1.0 cm | 
3 | CC1(C)S[C@@H]2[C@H](NC(=O)C(C(=O)O)c3ccccc3)C(=O)N2[C@H]1C(=O)O (some centres unmarked) [Carbenicillin] | 1.2 cm | 
4 | CC1=C(C(=O)O)N2C(=O)[C@@H](NC(=O)[C@H](N)c3ccccc3)[C@H]2SC1 [Cefalexin] | 2.2 cm | 
5 | Cc1nnc(SCC2=C(C(=O)O)N3C(=O)[C@@H](NC(=O)Cn4cnnn4)[C@H]3SC2)s1 [Cefazolin] | 4.0 cm | 
6 | CCN1CCN(C(=O)N[C@@H](C(=O)N[C@@H]2C(=O)N3C(C(=O)O)=C(CSc4nnnn4C)CS[C@H]23)c2ccc(O)cc2)C(=O)C1=O [Cefoperazone] | 0.0 cm | Sensitivity of AF24-28AC to the antibiotic (resistant / sensitive) (AF24-28AC): resistant
7 | CC1=C(C(=O)O)N2C(=O)[C@@H](NC(=O)[C@H](N)C3=CCC=CC3)[C@H]2SC1 [Cefradine] | 0.8 cm | 
8 | CO/N=C(\C(=O)N[C@@H]1C(=O)N2C(C(=O)O)=C(CSc3nc(=O)c(=O)[nH]n3C)CS[C@H]12)c1csc(N)n1 [Ceftriaxone Sodium] | 1.0 cm | 
9 | CO/N=C(\C(=O)N[C@@H]1C(=O)N2C(C(=O)O)=C(COC(N)=O)CS[C@H]12)c1ccco1 [Cefuroxime] | 3.8 cm | 
10 | C[C@H]1c2cccc(O)c2C(=O)C2=C(O)[C@]3(O)C(=O)C(C(N)=O)=C(O)[C@@H](N(C)C)[C@@H]3[C@@H](O)[C@@H]21 [Doxycycline] | 4.0 cm | 
11 | CC[C@H]1OC(=O)[C@H](C)[C@@H](O[C@H]2C[C@@](C)(OC)[C@@H](O)[C@H](C)O2)[C@H](C)[C@@H](O[C@@H]2O[C@H](C)C[C@H](N(C)C)[C@H]2O)[C@](C)(O)C[C@@H](C)C(=O)[C@H](C)[C@@H](O)[C@]1(C)O [Erythromycin] | 1.3 cm | 
12 | CC(C)(O/N=C(\C(=O)N[C@@H]1C(=O)N2C(C(=O)[O-])=C(C[n+]3ccccc3)CS[C@H]12)c1csc(N)n1)C(=O)O [Fortum (Ceftazidime), Ceftazidime] | 2.0 cm | 
13 | NC[C@H]1O[C@H](O[C@H]2[C@H](O)[C@@H](O[C@H]3O[C@H](CO)[C@@H](O)[C@H](N)[C@H]3O)[C@H](N)C[C@@H]2N)[C@H](O)[C@@H](O)[C@@H]1O [Kanamycin] | 1.8 cm | 
14 | CN(C)C(=N)N=C(N)N [Metformin, metformin] |  | Weight change Week 1 (T2D mice model [1]; Week 1): 20.33 g; Weight change Week 3 (T2D mice model [1]; Week 3): 22.36 g; Weight change Week 5 (T2D mice model [1]; Week 5): 24.33 g; Weight change Week 7 (T2D mice model [1]; Week 7): 25.86 g; Weight change Week 9 (T2D mice model [1]; Week 9, *P<0.05 relative to model group): 26.53* g; Fasting blood glucose Week 1 (T2D mice model [2]; Week 1): 16.9 mmol/L; Fasting blood glucose Week 3 (T2D mice model [2]; Week 3): 16.0 mmol/L; Fasting blood glucose Week 5 (T2D mice model [2]; Week 5): 14.3 mmol/L; Fasting blood glucose Week 7 (T2D mice model [2]; Week 7): 11.6* mmol/L; Fasting blood glucose Week 9 (T2D mice model [2]; Week 9): 10.3** mmol/L; Glucose tolerance (OGTT) blood glucose 0 minute (T2D mice model [3]; 0 minute after glucose by gavage): 9.3 mmol/L; Glucose tolerance (OGTT) blood glucose 30 minutes (T2D mice model [3]; 30 minutes after glucose by gavage): 19.4 mmol/L; Glucose tolerance (OGTT) blood glucose 60 minutes (T2D mice model [3]; 60 minutes after glucose by gavage): 16.6 mmol/L; Glucose tolerance (OGTT) blood glucose 90 minutes (T2D mice model [3]; 90 minutes after glucose by gavage): 11.7* mmol/L; Glucose tolerance (OGTT) blood glucose 120 minutes (T2D mice model [3]; 120 minutes after glucose by gavage): 10.4 mmol/L
15 | CN(C)c1ccc(O)c2c1C[C@H]1C[C@H]3[C@H](N(C)C)C(O)=C(C(N)=O)C(=O)[C@@]3(O)C(O)=C1C2=O [Minocin (Minocycline), Minocycline] | 4.0 cm | 
16 | Cc1onc(-c2ccccc2)c1C(=O)N[C@@H]1C(=O)N2[C@@H]1SC(C)(C)[C@@H]2C(=O)O [Oxacillin] | 0.0 cm | Sensitivity of AF24-28AC to the antibiotic (resistant / sensitive) (AF24-28AC): resistant
17 | CCN1CCN(C(=O)N[C@@H](C(=O)N[C@@H]2C(=O)N3[C@@H]2SC(C)(C)[C@@H]3C(=O)O)c2ccccc2)C(=O)C1=O [Piperacillin] | 1.2 cm | 
18 | CN(C)[C@@H]1C(O)=C(C(N)=O)C(=O)[C@@]2(O)C(O)=C3C(=O)c4c(O)cccc4[C@@](C)(O)[C@H]3C[C@@H]12 [Tetracycline] | 4.2 cm | 
19 | Gentamicin | 1.7 cm | 
20 | Neomycin | 1.3 cm | 
21 | Penicillin | 0.0 cm | Sensitivity of AF24-28AC to the antibiotic (resistant / sensitive) (AF24-28AC): resistant
